# Reference: patent US20100093760A1, “METHODS FOR IDENTIFYING COMPOUNDS THAT MODULATE CELL SIGNALING AND METHODS EMPLOYING SUCH COMPOUNDS” (The General Hospital Corporation, priority 2006, published 2010)
# “Also recorded” adds a separate entry of the source.
# How the values were obtained:
# [1] = system: BMP-mediated SMAD1/5/8 activation in BMPR-II-deficient PASMCs; test: BMP-induced SMAD1/5/8 activation in BMPR-II-deficient PASMCs; assay type: cell-based, murine
# Experimental: Wild-type and BMPR-II-deficient PASMC were isolated as previously described (Yu et al., J. Biol. Chem. 280:24443-24450, 2005), and cultured in RPMI medium (Invitrogen) supplemented with 10% FBS. C2C12 cells (American Type Culture Collection, Manassas, Va.) were cultured in DMEM supplemented with glutamine and 10% FBS. HepG2 cells and Hep3B cells (ATCC) were cultured in Minimal Essential Alpha Medium with L-glutamine (α-MEM, Invitrogen) containing 10% FBS. For studies of SMAD activation in vitro, PASMC were incubated in 0.5% FCS RPMI for 24 hours, followed by preincubation with drug compounds, noggin, or vehicle for 30 minutes, followed the addition of recombinant BMPs 2, 4, 6, or 7, or TGF-β1 or Activin A (R&D Systems, Minneapolis, Minn.) for 30 minutes.
# Cell extracts or tissues were mechanically homogenized in SDS-lysis buffer (62.5 mM Tris-HCl (pH 6.8), 2% SDS, 10% glycerol, 50 mM DTT, 0.01% bromophenol blue); separated by SDS-PAGE; immunoblotted with anti-phospho-SMAD1/5/8, anti-phospho-SMAD2 (Cell Signaling, Beverly, Mass.), or anti-α-tubulin (Upstate/Millipore, Billerica, Mass.) Abs; and visualized using ECL Plus (GE Healthcare, Piscataway, N.J.). Levels of immunoreactive proteins were quantitated by ImageQuant software on a Storm phosphorimager (GE Healthcare).
# chordin morphant embryos = test: Rescue of ventralization in chordin morphant zebrafish embryos; assay type: in vivo; details: 20 μM at 2 hpf, 36 hpf
# Source text: Since treatment with Compound C/Dorsomorphin mimics BMP antagonism in zebrafish, it was postulated that Compound C/Dorsomorphin might rescue ventralization caused by loss of the endogenous BMP antagonist chordin ([…] et al., Development 123:143-151, 1996; Nasevicius et al., Nat. Genet. 26:216-220, 2000). […] Genet. 26:216-220, 2000; Leung et al., Dev. Biol. 277:235-254, 2005). […] Therefore, Compound C/Dorsomorphin treatment compensates for the loss of an endogenous BMP antagonist in zebrafish embryos, confirming its function as a BMP antagonist.
smiles,measurement,setting,value
c1cc(-c2cnn3cc(-c4ccc(OCCN5CCCCC5)cc4)cnc23)ccn1 [Compound C/Dorsomorphin],"effect on activation of SMAD1/5/8 by BMPs 2, 4, 6, and 7","[1]; BMPR-II-deficient PASMCs, 4 μM, BMPs 10 ng/ml, 30 minutes",inhibited
same,"effect on activity of BMPs 2, 4, 6, 7, and 9",[1]; wild type and BMP type II receptor knockout cells,effectively inhibits
same,ventralization of chordin morphant embryos,chordin morphant embryos,prevented ventralization and ICM expansion; also recorded: little or no ventralization
